Reference: ChEMBL document CHEMBL1155022, “Aerucyclamides A and B: isolation and synthesis of toxic ribosomal heterocyclic peptides from the cyanobacterium Microcystis aeruginosa PCC 7806” (J Nat Prod, 2008)

Assay: Acute grazer toxicity against Thamnocephalus platyurus after 24 hrs
Type: organism-based
Conditions: in vivo

Row | Compound | LC50 at 24 h [µM]
1 | CC[C@H](C)[C@@H]1NC(=O)[C@H]2CSC(=N2)[C@@H]([C@@H](C)CC)NC(=O)c2csc(n2)CNC(=O)[C@H]2N=C1O[C@@H]2C [AERUCYCLAMIDE A] | 30.5
2 | CC[C@H](C)[C@@H]1NC(=O)c2csc(n2)[C@@H]([C@@H](C)CC)NC(=O)c2csc(n2)CNC(=O)[C@H]2N=C1O[C@@H]2C [AERUCYCLAMIDE B] | 33.8
